# Experimental data published in ChEMBL document CHEMBL5550122, “Photodynamic anticancer activity evaluation of novel 5-aminolevulinic acid and 3-hydroxypyridinone conjugates” (Bioorg Med Chem, 2024).
# Calls of active or inactive are those of the source. The calls are words filed in the database; no cut-off is given here.
# Key:
# [1] = test system: HeLa; test: Cytotoxicity against human HeLa cells assessed as reduction in cell viability at 100 uM incubated for 4 hrs under dark condition by MTT assay; assay type: functional, cell-based
# [2] = test system: MCF7; test: Cytotoxicity against human MCF7 cells assessed as reduction in cell viability at 100 uM incubated for 4 hrs under dark condition by MTT assay; assay type: functional, cell-based
# [3] = test system: A-375; test: Cytotoxicity against human A-375 cells assessed as reduction in cell viability at 100 uM incubated for 4 hrs under dark condition by MTT assay; assay type: functional, cell-based
# [4] = test system: HeLa; test: Cytotoxicity against human HeLa cells assessed as reduction in cell viability preincubated for 4 hrs under dark condition followed by irradiation with blue light at 2.5 J.cm^-2 energy level for 5 mins and measured after 18 hrs by MTT assay; assay type: functional, cell-based; details: light or radiation study
# [5] = test system: MCF7; test: Cytotoxicity against human MCF7 cells assessed as reduction in cell viability preincubated for 4 hrs under dark condition followed by irradiation with blue light at 2.5 J.cm^-2 energy level for 5 mins and measured after 18 hrs by MTT assay; assay type: functional, cell-based; details: MCF7, light or radiation study
# [6] = test system: A-375; test: Cytotoxicity against human A-375 cells assessed as reduction in cell viability preincubated for 4 hrs under dark condition followed by irradiation with blue light at 2.5 J.cm^-2 energy level for 5 mins and measured after 18 hrs by MTT assay; assay type: functional, cell-based; details: A-375, light or radiation study
# [7] = Drug metabolism assessed as esterase (unknown origin) mediated hydrolysis by measuring 5-Aminolevulinic acid formation; assay type: ADME; details: human
# [8] = Drug metabolism assessed as esterase (unknown origin) mediated hydrolysis by measuring hydroxypyridinone formation; assay type: ADME; details: human
# [9] = (§1) Prodrug release in human Hela cells assessed as 3-[(1Z,4Z,9Z,15Z)-7-(2-carboxyethyl)-3,8,12,17-tetramethyl-13,18-divinyl-21,23-dihydroporphyrin-2-yl]propanoic acid release by measuring increase in fluorescence intensity at 20 to 80 uM by microplate reader analysis; assay type: ADME, cell-based; details: dose 20-80 µM
# [10] = (§2) Prodrug release in human MCF7 cells assessed as 3-[(1Z,4Z,9Z,15Z)-7-(2-carboxyethyl)-3,8,12,17-tetramethyl-13,18-divinyl-21,23-dihydroporphyrin-2-yl]propanoic acid release by measuring increase in fluorescence intensity at 20 to 80 uM by microplate reader analysis; assay type: ADME, cell-based; details: mcf7, 80 µM, dose 20-80 µM
# [11] = (§3) Prodrug release in human A-375 cells assessed as 3-[(1Z,4Z,9Z,15Z)-7-(2-carboxyethyl)-3,8,12,17-tetramethyl-13,18-divinyl-21,23-dihydroporphyrin-2-yl]propanoic acid release by measuring increase in fluorescence intensity at 20 to 80 uM by microplate reader analysis; assay type: ADME, cell-based; details: a-375, 80 µM, dose 20-80 µM
# [12] = as §1, with “measuring fold” for “measuring”, “analysis relative to 5-Aminolevulinic acid” for “analysis”; assay type: ADME, cell-based; details: dose 20-80 µM
# [13] = as §2, with “measuring fold” for “measuring”, “analysis relative to 5-Aminolevulinic acid” for “analysis”; assay type: ADME, cell-based; details: mcf7, 80 µM, dose 20-80 µM
# [14] = as §3, with “measuring fold” for “measuring”, “analysis relative to 5-Aminolevulinic acid” for “analysis”; assay type: ADME, cell-based; details: a-375, 80 µM, dose 20-80 µM
smiles,measurement,setting,value
CCCCCCn1c(C)cc(=O)c(O)c1COC(=O)CCC(=O)CN.Cl,Activity,[1],inactive
same,Activity,[2],inactive
same,Activity,[3],inactive
same,IC50,[4],24.2 µM
same,IC50,[5],43.3 µM
same,IC50,[6],28 µM
same,Drug metabolism,[7],Metabolite_Detected
same,Drug metabolism,[8],Metabolite_Detected
same,Drug metabolism,[9],Metabolite_Detected
same,Drug metabolism,[10],Metabolite_Detected
same,Drug metabolism,[11],Metabolite_Detected
same,fold change (FC),[12],18.9
same,fold change (FC),[13],5.3
same,fold change (FC),[14],2.8
